Data as given in US20240197891A1, “PHARMACEUTICAL COMPOSITIONS COMPRISING POH DERIVATIVES” (UNIVERSITY OF SOUTHERN CALIFORNIA, priority 2021, published 2024).

How the values were obtained:
UV-B exposed skin = assay: UV-B induced skin damage in SKH-1 hairless mice; format: in vivo, mouse; conditions: topical post exposure
Experimental: (§1) FIG. 23 illustrates the simulation of sunlight by irradiation with UVB lamps (310 nm). The irradiation was conducted in a phototoxicity testing chamber and fitted with a UV-B lamp providing with a spectral output of approximately 310 nm. The source of UVR was a short-wavelength UV lamp (VWR. Radnor, PA). The peak spectral output of this lamp was approximately 310 nm, with no energy detectable below 260 nm, approximately 0.6% between 260 and 280 nm (UV-C), 72.7% between 280 and 320 nm (UV-B), and 26.7% between 320 and 400 nm (UV-A). Radiation dosage of UV-B per irradiation was set at 54 mJ/cm^2 for the first week, 72 mJ/cm^2 for the second week, 90 mJ/cm^2 for the third week, and 108 mJ/cm^2 for the remaining weeks, as confirmed by a UV monitor. Each irradiation event was 10 minutes long.
POH-LA conjugate, linoleic acid, POH, and the additive combination of linoleic acid and POH were each suspended in glycerol:ethanol (90:10 vol/vol) to a final concentration of 10 nM with 50 μL and applied to each SKH-1 hairless mouse post UV-B exposure for treatment. The sunblock mouse was gently wiped on the exposure area with the sunblock towelette. […] In FIG. 23B, the mice were treated with the glycerol:ethanol vehicle only. In FIG. 23C, the mice were treated with POH. In FIG. 23D, the mice were treated with linoleic acid. In FIG. 23E, the mice were treated with an mixture of linoleic acid and POH. In FIG. 23F, the mice were treated with POH-LA conjugate. In FIG. 23G, the mice were treated with sunblock. The application of POH-LA conjugate to UV-B exposed tissue limits the amount of observable skin damage as compared to the untreated control (B) or the individual components of POH-LA conjugate either alone (POH—C and LA—D), in mixture (E), or with sunblock (G).
as §1, with “FIGS. 24A-D illustrates the” for “FIG. 23 illustrates the”, “UV lamp (VWR, Radnor, PA).” for “UV lamp (VWR. Radnor, PA).”, “second week, and 90 mJ/cm^2” for “second week, 90 mJ/cm^2”, “third week, as confirmed” for “third week, and 108 mJ/cm^2 for the remaining weeks, as confirmed”, “UV monitor.” for “UV monitor. Each irradiation event was 10 minutes long.”
POH-LA conjugate (FIG. 24A), linoleic acid (FIG. 24B), POH (FIG. 24C), and the additive combination of linoleic acid and POH (FIG. 24D) were each suspended in glycerol:ethanol (90:10 vol/vol) to a final concentration of 10 nM with 50 μL applied to each mouse post UV-B exposure for treatment. The application of POH-LA conjugate to UV-B exposed tissue limits the amount of observable skin damage as compared the individual components of POH-LA conjugate either alone or in mixture.
as §1, with “This example” for “FIG. 23”, “nm)” for “nm). The irradiation”, “(VWR,” for “(VWR.”, “monitor.” for “monitor. Each irradiation event was 10 minutes long.”
POH-LA conjugate, linoleic acid, POH, and the additive combination of linoleic acid and POH were each suspended in glycerol:ethanol (90:10 vol/vol) to a final concentration of 10 nM with 50 μL applied to each mouse post UV-B exposure for treatment. […]

TNF-α = assay: Serum TNF-α following UV exposure; format: in vivo, mouse
Experimental: SKH-1 hairless mice were treated with 10 mg/kg POH-LA conjugate freshly prepared daily. The POH-LA conjugate was formulated in glycerol:ethanol (90:10) while the control animals received the glycerol:ethanol vehicle only or the commercially available sunblock (Well & Good Sun Protection Wipes SPF 15). Additional test groups were treated with POH formulated in the glycerol:ethanol vehicle or linoleic acid formulated in the glycerol:ethanol vehicle. 50 μL of each formulation was placed on a area 1 cm^2 area that was exposed to the UV light. The mice were treated with their respective formulations after exposure to the UV light. In FIG. 22A, the mouse was treated with sunblock. In FIG. 22B, the mouse was treated with POH. In FIG. 22C, the mouse was treated with linoleic acid. In FIG. 22D, the mouse was treated with POH-LA conjugate. In FIG. […]:ethanol vehicle only. The POH-LA conjugate, POH or linoleic acid solutions were gently spread on the skin surface and allowed to air dry. The sunblock mouse was gently wiped on the exposure area with the sunblock towelette. This exposure and treatment went on for a maximum of 10 weeks. Throughout the experimental period the animals were photographed and weighed. At the end of the experimental period the mice were photographed and euthanized, followed by skin and blood collection. Blood was analyzed for markers of inflammation and DNA recovered from the exposed area of the skin and analyzed for markers of DNA damage.
Furthermore, blood samples were taken from each mouse 4 hours after the last cutaneous treatment. About 0.5 mL of blood was collected by cardiac puncture […]. Serum was aliquoted in Eppendorf tubes and store at −80° C. as preparation for cytokine analyses. […]
Mice were treated with 10 mg/kg POH-LA conjugate freshly prepared daily. […] Blood was analyzed for markers of inflammation and DNA recovered from the exposed area of the skin and analyzed for markers of DNA damage.

[1] = 3 weeks of UV-B exposure and treatment
[2] = 5 weeks of UV-B exposure and treatment

| Compound | observable skin damage (UV-B exposed skin; [1]) | observable skin damage (UV-B exposed skin; [2]) | TNF-α levels (TNF-α) |
| --- | --- | --- | --- |
| C=C(C)[C@@H]1CC=C(CO)CC1 [POH, perillyl alcohol] | displayed damage | displayed damage | 103.2 ± 18.0 pg/mL |
| C=C(C)[C@@H]1CC=C(COC(=O)CCCCCCC/C=C\C/C=C\CCCCC)CC1 [POH-LA conjugate, Octadeca-9,12-dienoic acid 4-isopropenyl-cyclohex-1-enylmethyl ester] | displayed no damage | appeared the same as the unexposed control mice skin | 72.6 ± 22.8 pg/mL |
